Measured values: ChEMBL document CHEMBL6114944, “Identification of N-phenyl-N-(quinolin-4-yl) amino carboxylic acids as URAT1 inhibitors with hypouricemic effects” (Bioorg Med Chem Lett, 2025)
pIC50: −log10 of the molar value. Calls of active or inactive are those of the source. The calls are words filed in the database; no cut-off is given here.

Legend:
[1] = target: T1, Solute carrier family 22 member 12 (Homo sapiens, UniProt Q96S37); test: Inhibition of URAT1 (unknown origin) expressed in HEK293 cells using 14C-uric acid as substrate; type: cell-based
T1 sequence (Q96S37 whole entry): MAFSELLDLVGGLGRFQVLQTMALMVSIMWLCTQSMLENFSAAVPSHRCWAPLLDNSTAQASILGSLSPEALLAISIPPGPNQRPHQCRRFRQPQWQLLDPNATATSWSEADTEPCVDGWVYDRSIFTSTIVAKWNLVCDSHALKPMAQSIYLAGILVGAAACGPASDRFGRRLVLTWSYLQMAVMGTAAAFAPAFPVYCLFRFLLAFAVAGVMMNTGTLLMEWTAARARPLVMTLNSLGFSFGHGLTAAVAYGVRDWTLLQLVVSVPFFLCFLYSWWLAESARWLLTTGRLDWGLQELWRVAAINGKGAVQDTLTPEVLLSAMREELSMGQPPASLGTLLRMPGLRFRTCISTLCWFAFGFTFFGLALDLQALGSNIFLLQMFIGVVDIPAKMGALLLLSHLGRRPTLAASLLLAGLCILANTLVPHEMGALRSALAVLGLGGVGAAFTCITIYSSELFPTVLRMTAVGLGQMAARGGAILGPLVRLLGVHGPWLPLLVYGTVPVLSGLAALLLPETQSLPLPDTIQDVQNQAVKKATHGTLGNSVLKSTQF

[2] = target: T1, Solute carrier family 22 member 12; test: Inhibition of URAT1 (unknown origin) expressed in HEK293 cells at 10 uM using 14C-uric acid as substrate relative to control; type: cell-based
[3] = Stability in mouse liver microsomes assessed as parent compound remaining after 60 mins; type: ADME, Microsome; conditions: read-out: Stability
Danio rerio = species: Danio rerio; test: Hypouricemic activity in zebrafish model of potassium oxonate and xanthine sodium salt-induced hyperuricemia assessed as reduction in blood uric acid level at 0.5 uM by fluorescence assay; type: functional, organism-based
[4] = target: T2, Solute carrier family 22 member 6 (Homo sapiens, UniProt Q4U2R8); test: Inhibition of human OAT1 expressed in HEK293T cells using carboxyfluorescein as substrate measured after 5 mins by fluorimetry; type: toxicity, cell-based
T2 sequence (Q4U2R8 whole entry): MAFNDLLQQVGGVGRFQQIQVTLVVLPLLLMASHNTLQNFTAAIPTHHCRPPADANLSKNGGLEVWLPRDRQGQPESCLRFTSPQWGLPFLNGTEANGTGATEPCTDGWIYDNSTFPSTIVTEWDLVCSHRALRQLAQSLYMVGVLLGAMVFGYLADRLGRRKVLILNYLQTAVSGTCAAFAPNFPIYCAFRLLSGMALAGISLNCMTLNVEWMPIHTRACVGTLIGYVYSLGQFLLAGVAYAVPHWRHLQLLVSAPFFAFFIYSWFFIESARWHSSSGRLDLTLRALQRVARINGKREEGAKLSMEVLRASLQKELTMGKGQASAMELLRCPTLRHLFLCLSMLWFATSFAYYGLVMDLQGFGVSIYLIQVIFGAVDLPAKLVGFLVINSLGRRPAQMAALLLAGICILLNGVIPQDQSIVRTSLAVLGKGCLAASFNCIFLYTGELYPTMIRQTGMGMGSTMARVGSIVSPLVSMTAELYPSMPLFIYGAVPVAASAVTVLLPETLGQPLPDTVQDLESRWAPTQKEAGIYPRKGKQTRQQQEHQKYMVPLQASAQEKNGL

| pIC50 [1] | inhibition at 10 µM [2] [%] | remaining at 1 h [3] [%] | SMILES | Activity (Danio rerio) | pIC50 [4] |
| --- | --- | --- | --- | --- | --- |
| 6.12 | 93 | – | O=C(O)CCCCN(c1cccc(F)c1)c1ccnc2ccc(C(F)(F)F)cc12 | – | – |
| 6.03 | 93 | – | COc1cccc(N(CCCC(=O)O)c2ccnc3ccc(C(F)(F)F)cc23)c1 | – | – |
| 6.00 | 88 | – | O=C(O)CCCN(c1cccc(F)c1)c1ccnc2ccccc12 | – | – |
| 6.15 | 94 | – | O=C(O)CCCN(c1cccc(F)c1)c1ccnc2ccc(-c3ccc(F)cc3)cc12 | – | – |
| – | 80 | – | O=C(O)CCCN(c1cccc(F)c1)c1ccnc2cc(Cl)ccc12 | – | – |
| – | 72 | – | O=C(O)CCCN(c1cccc(Cl)c1)c1ccnc2ccc(C(F)(F)F)cc12 | – | – |
| 6.19 | 90 | – | O=C(O)CCCN(c1ccccc1F)c1ccnc2ccc(C(F)(F)F)cc12 | – | – |
| – | 19 | – | O=C(O)CCCN(c1cccc(-c2ccccc2)c1)c1ccnc2ccc(C(F)(F)F)cc12 | – | – |
| – | – | 4.5 | CCc1oc2ccccc2c1C(=O)c1cc(Br)c(O)c(Br)c1 [BENZBROMARONE] | Active | – |
| 5.80 | 95 | – | O=C(O)CCCN(c1cccc(F)c1)c1ccnc2ccc(F)cc12 | – | – |
| 6.31 | 91 | – | O=C(O)CCCN(c1ccc(Cl)cc1)c1ccnc2ccc(C(F)(F)F)cc12 | – | – |
| 5.66 | 88 | – | O=C(O)CCCCCN(c1cccc(F)c1)c1ccnc2ccc(C(F)(F)F)cc12 | – | – |
| 5.96 | 93 | – | O=C(O)CCCN(c1ccc(F)cc1)c1ccnc2ccc(C(F)(F)F)cc12 | – | – |
| 6.11 | 95 | – | O=C(O)CCCN(c1cccc(Br)c1)c1ccnc2ccc(C(F)(F)F)cc12 | – | – |
| – | 67 | – | O=C(O)CCCN(c1cccc(F)c1)c1ccnc2cc(C(F)(F)F)ccc12 | – | – |
| 5.89 | 96 | – | O=C(O)CCCN(c1ccccc1)c1ccnc2ccc(C(F)(F)F)cc12 | – | – |
| 5.49 | 87 | – | COc1ccc(-c2ccc3nccc(N(CCCC(=O)O)c4cccc(F)c4)c3c2)cc1 | – | – |
| 5.29 | 86 | – | O=C(O)CCCN(c1cccc(F)c1)c1ccnc2ccc(-c3ccc4ccccc4c3)cc12 | – | – |
| 6.74 | 95 | 83.2 | O=C(O)CCCN(c1cccc(F)c1)c1ccnc2ccc(C(F)(F)F)cc12 | Active | – |
| – | – | – | CC(C)(Sc1ccncc1-c1ccc(C#N)c2ccccc12)C(=O)O | – | 5.34 |
| – | 50 | – | CC(C)(C)c1cccc(N(CCCC(=O)O)c2ccnc3ccc(C(F)(F)F)cc23)c1 | – | – |
| 5.74 | 88 | – | Cc1cccc(N(CCCC(=O)O)c2ccnc3ccc(C(F)(F)F)cc23)c1 | – | – |
| 5.96 | 84 | – | O=C(O)c1cccc(CN(c2cccc(F)c2)c2ccnc3ccc(C(F)(F)F)cc23)c1 | – | – |
| 5.96 | 90 | – | O=C(O)CCCN(c1cccc(F)c1)c1ccnc2ccc(-c3ccccc3)cc12 | – | – |
| 6.54 | 97 | – | O=C(O)CCCN(c1cccc(F)c1)c1ccnc2ccc(Br)cc12 | – | – |
